Measured values reported in patent US7205382B2, “Peptides, the production and use thereof for binding immunoglobulins” (Fresenius Medical Care Affina GmbH, priority 2000, dated 2007).
Bridge positions count the residues as written; N and C are the ends. Square brackets hold non-standard residues; d marks the D form. Ends that are not written are not given here. cellulose = not defined here; βAla = NCCC(=O)O

Columns and labels:
Format in all cases: binding
Parameters in all cases: key: No binding of immunoglobulin for the defined peptide variant, detection negative: 0; Binding of immunoglobulin for the defined peptide variant, detection positive: +
[1] = tested on: immunoglobulins in human plasma; assay: Cellulose-immobilized 13-mer peptide variants incubated with human plasma, anti-human IgG-AP detection; settings: human plasma as sample, diluted 1:10,000 in blocking buffer, 3 h room temperature
Procedure: (§1) Peptides consisting of 13 amino acids were synthesized by solid phase synthesis (Houghten, 1985) on a cellulose matrix with (βA)(βA) as a spacer group.
(§2) The immobilized peptides were tested for their immunoglobulin binding capability by incubation with human IgG-Fc in a buffered solution and by incubation with human plasma.
(§3) Thus, the peptide variants immobilized on solid phases were washed with T-TBS buffer (136 mM NaCl, 1.6 mM KCl, 0.05% (v/v) Tween 20, 50 mM Tris-HCl, pH 8.0) and subsequently treated with blocking buffers (5% (w/v) saccharose, 4% (w/v) bovine serum albumin in T-TBS). Incubation of the immobilized peptides with IgG-Fc (1 μg/ml) in blocking buffer and human serum (diluted 1:10,000 in blocking buffer) was effected for 3 h at room temperature. For checking the specificity of the binding, buffered serum albumin solution (blocking buffer) without addition was included as a control. Thereafter, the peptide variants immobilized on the solid phases were washed three more times with T-TBS buffer.
(§4) After incubation with alkaline phosphatase-conjugated anti-human IgG antibody (1.2 μg/ml) in blocking buffer, detection of the immunoglobulin binding was effected by means of NBT (nitroblue tetrazolium chloride)/BCIP (5-bromo-4-chloro-3-indolyl phosphate toluidine salt) as a substrate (200 μl of parent solution (18.75 mg/ml NBT and 9.4 mg/ml BCIP in 67% (v/v) DMSO) in 10 ml developing buffer (100 mM Tris-HCl, 100 mM NaCl, 5 mM MgCl2, pH 9.5)).

[2] = tested on: serum albumin; assay: Cellulose-immobilized 13-mer peptide variants incubated with serum albumin (negative control), anti-human IgG-AP detection; settings: blocking buffer without addition, 3 h room temperature
Procedure: as §1, §2, §3, §4

[3] = tested on: human IgG-Fc; assay: Cellulose-immobilized 13-mer peptide variants incubated with human IgG-Fc, anti-human IgG-AP detection; settings: IgG-Fc 1 μg/ml in blocking buffer, 3 h room temperature
Procedure: as §1, §2, §3, §4

Row | Substance | Result for incubation with human plasma (immunoglobulin binding detection) [1] | Result for incubation with serum albumin (immunoglobulin binding detection) [2] | Result for incubation with human IgG-Fc (immunoglobulin binding detection) [3]
1 | 05C: cellulose-bound 13-mer variant DCAWCLGELVWCT-(βA)(βA) (not fully specified (N-terminus, C-terminus, bridges); printed as DCAWCLGELVWCT-(βA)(βA); cysteine pairing not given here; also: cellulose-bound) | 0 | 0 | 0
2 | 04I: cellulose-bound 13-mer variant DCAIHLGELVWCT-(βA)(βA) (DCAIHLGELVWCT[βAla][βAla]; disulfide 2-12 (inferred); also: cellulose-bound) | 0 | 0 | +
3 | 07T: cellulose-bound 13-mer variant DCAWHLTELVWCT-(βA)(βA) (DCAWHLTELVWCT-{βAla-βAla-cellulose}; disulfide 2-12 (inferred); not fully specified (N-terminus); printed as DCAWHLTELVWCT-(βA)(βA); reading uncertain) | 0 | 0 | 0
4 | 10G: cellulose-bound 13-mer variant DCAWHLGELGWCT-(βA)(βA) (DCAWHLGELGWCT-{βAla-βAla-cellulose}; disulfide 2-12 (inferred); reading uncertain; also: printed as DCAWHLGELGWCT-(βA)(βA)) | 0 | 0 | 0
5 | 07W: cellulose-bound 13-mer variant DCAWHLWELVWCT-(βA)(βA) (DCAWHLWELVWCT-{βAla-βAla-cellulose}; disulfide 2-12 (inferred); not fully specified (N-terminus); printed as DCAWHLWELVWCT-(βA)(βA); reading uncertain) | 0 | 0 | 0
6 | 01T: cellulose-bound 13-mer variant TCAWHLGELVWCT-(βA)(βA) (TCAWHLGELVWCT-{βAla-βAla-cellulose}; disulfide 2-12 (inferred); reading uncertain; also: printed as TCAWHLGELVWCT-(βA)(βA)) | 0 | 0 | 0
7 | 09V: cellulose-bound 13-mer variant DCAWHLGEVVWCT-(βA)(βA) (DCAWHLGEVVWCT-{βAla-βAla-cellulose}; disulfide 2-12 (inferred); reading uncertain; also: printed as DCAWHLGEVVWCT-(βA)(βA)) | 0 | 0 | 0
8 | 09T: cellulose-bound 13-mer variant DCAWHLGETVWCT-(βA)(βA) (DCAWHLGETVWCT-{βAla-βAla-cellulose}; disulfide 2-12 (inferred); reading uncertain; also: printed as DCAWHLGETVWCT-(βA)(βA)) | 0 | 0 | 0
9 | 08M: cellulose-bound 13-mer variant DCAWHLGMLVWCT-(βA)(βA) (DCAWHLGMLVWCT-{βAla-βAla-cellulose}; disulfide 2-12 (inferred); not fully specified (N-terminus); printed as DCAWHLGMLVWCT-(βA)(βA); reading uncertain) | + | 0 | +
10 | 10C: cellulose-bound 13-mer variant DCAWHLGELCWCT-(βA)(βA) (DCAWHLGELCWCT-{βAla-βAla-cellulose}; not fully specified (bridges); printed as DCAWHLGELCWCT-(βA)(βA); cysteine pairing not given here; reading uncertain) | 0 | 0 | 0
11 | 09E: cellulose-bound 13-mer variant DCAWHLGEEVWCT-(βA)(βA) (DCAWHLGEEVWCT-{βAla-βAla-cellulose}; disulfide 2-12 (inferred); reading uncertain; also: printed as DCAWHLGEEVWCT-(βA)(βA)) | 0 | 0 | 0
12 | 09D: cellulose-bound 13-mer variant DCAWHLGEDVWCT-(βA)(βA) (DCAWHLGEDVWCT-{βAla-βAla-cellulose}; disulfide 2-12 (inferred); reading uncertain; also: printed as DCAWHLGEDVWCT-(βA)(βA)) | 0 | 0 | 0
13 | 02A: cellulose-bound 13-mer variant DAAWHLGELVWCT-(βA)(βA) (DAAWHLGELVWCT[βAla][βAla]; not fully specified; printed as DAAWHLGELVWCT-(βA)(βA); also: cellulose-bound) | 0 | 0 | 0
14 | 06N: cellulose-bound 13-mer variant DCAWHNGELVWCT-(βA)(βA) (DCAWHNGELVWCT-{βAla-βAla-cellulose}; disulfide 2-12 (inferred); not fully specified (N-terminus); printed as DCAWHNGELVWCT-(βA)(βA); reading uncertain) | + | 0 | +
15 | 03Y: cellulose-bound 13-mer variant DCYWHLGELVWCT-(βA)(βA) (DCYWHLGELVWCT-{βAla-βAla-cellulose}; disulfide 2-12 (inferred); reading uncertain; also: printed as DCYWHLGELVWCT-(βA)(βA)) | 0 | 0 | 0
16 | 02I: cellulose-bound 13-mer variant DIAWHLGELVWCT-(βA)(βA) (DIAWHLGELVWCT[βAla][βAla]; not fully specified; printed as DIAWHLGELVWCT-(βA)(βA); also: cellulose-bound) | 0 | 0 | 0
17 | 11N: cellulose-bound 13-mer variant DCAWHLGELVNCT-(βA)(βA) | 0 | 0 | 0
18 | 04V: cellulose-bound 13-mer variant DCAVHLGELVWCT-(βA)(βA) (disulfide 2-12 (inferred); not fully specified (N-terminus, C-terminus); printed as DCAVHLGELVWCT-(βA)(βA); also: cellulose-bound) | + | 0 | +
19 | 10R: cellulose-bound 13-mer variant DCAWHLGELRWCT-(βA)(βA) (DCAWHLGELRWCT-{βAla-βAla-cellulose}; disulfide 2-12 (inferred); reading uncertain; also: printed as DCAWHLGELRWCT-(βA)(βA)) | 0 | 0 | 0
20 | 05K: cellulose-bound 13-mer variant DCAWKLGELVWCT-(βA)(βA) (disulfide 2-12 (inferred); not fully specified (N-terminus, C-terminus); printed as DCAWKLGELVWCT-(βA)(βA); also: cellulose-bound) | 0 | 0 | 0
